Values after ≈ are worked out from the molar mass of the structure shown. “Also recorded” adds a separate entry of the source.
Key:
[1] = tested on: Acenitobacter baumanii; assay: Activity against other bacterial pathogens (preliminary); assay type: cell-based
[2] = tested on: MvfR regulon; assay: Quantification of pyocyanin (OD520nm of chloroform-extracted cultures); assay type: cell-based, P. aeruginosa; conditions: Pseudomonas aeruginosa
[3] = Solubility; assay type: physicochemical; conditions: initial solubility studies; listed as D88
Excerpt: FIGS. 6A-6E show pharmacological properties of a representative group of MvfR inhibitors.

[4] = tested on: Pseudomonas aeruginosa MDR clinical isolates; assay: Pyocyanin production in MDR clinical isolates; assay type: cell-based; conditions: 10 μM; listed as D88
Experimental: Percentage of pyocyanin production is presented in presence of 10 μM of D57 or D88 compounds. Tukey's multiple comparisons test p<0.0001.
Pyocyanin levels were determined by measuring OD520nm of chloroform-extracted cultures.

[5] = target: T1, MvfR (Pseudomonas aeruginosa, UniProt Q9I4X0); assay: Surface plasmon resonance (SPR) binding to purified MvfR co-inducer binding domain; design: species or system P. aeruginosa; conditions: mean KD value, SPR; mean over the compounds named
T1 construct: made in house
Experimental: Compounds identified to interfere with MvfR were confirmed for the direct physical interaction with this protein. Using SPR, the percentage of compound's binding to the purified MvfR protein was analyzed and used to determine the binding parameters (KD, kon and koff)—thus determining the kinetic of interaction with MvfR.
The recombinant MvfR co-inducer binding domain was purified using Ni-NTA chromatography, as previously reported (see e.g., Xiao et al, Microbiology, 2006, 152:1679-1686; Starkey et al, PLoS Pathog. 2014, 10:e1004321; and Kefala et al, Acta. Crystallogr. Sect. F. Struct. Biol. Cryst. Commun. 2012, 68:695-697). The purified protein was immobilized with the amine coupling method at a target level of 5000 RU on Chip. SPR was performed according to previously reported procedures (see e.g., Starkey et al, PLoS Pathog. 2014, 10:e1004321; Maura et al, ACS Chemical Biology, 2017, 12:1435-1443; and Kitao et al, MBIO, in press). […] Table 3 lists the steady-state KD data measured by SPR.

[6] = tested on: MvfR regulon; assay: pqsA gene expression (pqsA-GFP reporter); assay type: cell-based, P. aeruginosa; conditions: Pseudomonas aeruginosa, read-out: pqsA @10 uM (%), compound at 10 uM
[7] = tested on: P. aeruginosa MDR clinical isolates; assay: AT/P cell formation in MDR clinical isolates; assay type: cell-based; conditions: 10 μM; MDR clinical isolates incl. mucoid strain from CF patients
Experimental: (§1) Statistical significance to the control was assessed using one-way ANOVA+Dunnett's post-test. P<0.001-0.005.
AT/P efficacy of compounds using CFU plating was assessed by growning over-night, cultures diluted 1:100 in triplicate in fresh LB medium in the presence or absence of inhibitor, and re-grown to an OD600 of 2.0 while shaking under aeration at 37° C. Before the antibiotic treatment, aliquots were plated to obtain reference colony counts. […] At 24-h and 48-h time points, the number of surviving bacteria were assessed by plating. The survival fraction of AT/P cells was calculated by dividing the number of surviving bacteria by the number of live bacteria that were present before the antibiotic treatment (reference datum) and expressed as a mean (±SD) of at least three replicate experiments. Using the same CFU plating assay, the efficacy of all compounds identified will be tested against additional antibiotic classes: b-lactams (ceftazidime, cefepime and imipenem), quinolones (ciprofloxacin, moxifloxacin, and levofloxacin), and aminoglycosides (gentamicin and tobramycicn).

[8] = tested on: adhesive intestinal E. coli; assay: Activity against other bacterial pathogens (preliminary); assay type: cell-based
[9] = tested on: PA clinical isolate PA14; assay: Biofilm formation (microtiter biofilm assay); assay type: cell-based, P. aeruginosa; conditions: 10 μM
Experimental: as §1
Inhibition of biofilm formation was assessed by quantifying initiation of biofilm formation via assessment of surface adhesion of PA using the microtiter biofilm assay as described in O'Toole, G A. J. Vis. Exp. 2011, Microtiter Dish Biofilm Formation Assay. Using single optimized agents, this assay allowed for various concentrations of each compound and several incubation times to be investigated in an HTS manner.

T1 sequence (Q9I4X0 91-332): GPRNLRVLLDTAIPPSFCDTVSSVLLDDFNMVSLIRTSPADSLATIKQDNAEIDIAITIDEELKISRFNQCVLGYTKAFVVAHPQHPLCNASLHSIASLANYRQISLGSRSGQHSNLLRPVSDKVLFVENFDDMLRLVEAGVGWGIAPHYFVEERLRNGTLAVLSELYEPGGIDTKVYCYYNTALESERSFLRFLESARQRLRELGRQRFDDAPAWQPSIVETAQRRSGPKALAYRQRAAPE

SMILES: N#Cc1ccc(NC(=O)C(F)C(=O)Nc2ccc(Oc3ccccc3)cc2)cc1 (stereo not drawn) [Compound 103]
- potency against Acenitobacter baumanii [1]: potent
- IC50 ([2]; read-out: IC50 pyocyanin (μM)): 0.95 µM
- activity at 1 µM ([2]; read-out: pyocyanin @1 uM (%), compound at 1 uM): 28.1%
- activity at 10 µM ([2]; read-out: pyocyanin @10 uM (%), compound at 10 uM): 4.4%
- activity at 50 µM ([2]; read-out: pyocyanin @50 uM (%), compound at 50 uM): 5.58%
- solubility [3]: 0.190 mg/mL (≈ 488 µM)
- activity on pyocyanin production in MDR clinical isolates [4]: highly active; also recorded: confirmed
- Kd [5]: 0.25 µM
- activity at 10 µM [6]: 1.95%
- activity against antibiotic tolerant/persister cell formation [7]: highly active
- potency against adhesive intestinal E. coli [8]: potent
- activity against biofilm formation [9]: highly active

From patent publication US11731946B2, “Broad spectrum antivirulence, anti-persistence compounds” (priority 2017, dated 2023)
